From PubChem BioAssay (NCI)
Where “and” joins values, the source holds several entries; their conditions need not be identical. Equal values may be shown once.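 Values below derive from 48-hour exposures of cells grown in 96-well plates, with endpoints linearly interpolated between the two concentrations bracketing the appropriate inhibition level. Abbreviation: GI50, concentration required for 50% inhibition of growth. TGI: concentration producing complete growth inhibition.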

What was measured:
Test in all cases: NCI tumour cell line growth inhibition, 48 h
[1] = test system: MOLT-4 leukemia
[2] = test system: CAKI-1 renal
[3] = test system: OVCAR-3 ovarian
[4] = test system: K-562 leukemia
[5] = test system: UO-31 renal
[6] = test system: SK-MEL-28 melanoma
[7] = test system: DLD-1 colon
[8] = test system: RXF-631 renal
[9] = test system: NCI/ADR-RES ovarian
[10] = test system: MDA-MB-231 breast

Structure (SMILES)	TGI [1]	TGI [2]	TGI [3]	TGI [4]	TGI [5]	TGI [6]	TGI [7] [µM]	TGI [8] [µM]	TGI [9] [µM]	TGI [10]	GI50 [9]	GI50 [1]	GI50 [10]	GI50 [2]	GI50 [3]	GI50 [4]	GI50 [5]	GI50 [6]	GI50 [7] [µM]	GI50 [8] [µM]
CN=c1ss/c(=N\C(=S)N(C)C)n1C1CCCCC1	> 31.6 µM	> 31.6 µM	> 31.6 µM	> 31.6 µM	> 31.6 µM	> 31.6 µM	> 100	> 100	–	–	–	–	–	–	–	–	–	–	–	–
CC[C@@]1(OC(=O)C(N)CCC(=O)O)C(=O)OCc2c1cc1n(c2=O)Cc2cc3ccccc3nc2-1 (stereo partly drawn)	0.0992 µM	0.235 µM	2.07 µM	> 100 µM	0.746 µM	51.8 µM	> 100	–	0.297	5.82 µM	–	–	–	–	–	–	–	–	–	–
CC(C)(C)C1CCP(=O)(c2ccccc2)CC1 (stereo not drawn)	> 100 µM	–	> 100 µM	> 100 µM	> 100 µM	> 100 µM	> 100	–	–	–	–	–	–	–	–	–	–	–	–	–
Cc1ccc(C2NC(=S)N3C(c4ccc(C)cc4)NC(=S)N23)cc1 (stereo not drawn)	18.9 µM	7.01 µM	11.5 µM	12 µM	28.2 µM	24.2 µM	–	–	6.19	24 µM	2.33 µM	5.82 µM	9.16 µM	2.68 µM	3.26 µM	1.01 µM	12 µM	11.5 µM	–	–
N#Cc1ccc(N2Cc3cc(Cl)ccc3OC3=C2C(=O)N(Cc2ccc(F)cc2)C3=O)cc1	1.26 µM	0.38 µM	0.96 µM	1.68 µM	0.868 µM	1.13 µM	–	–	8.58	1.51 µM	0.85 µM	0.291 µM	0.636 µM	0.186 µM	0.494 µM	0.313 µM	0.436 µM	0.558 µM	–	–
O=C1c2ccccc2-c2c1c1c(O)cccc1n2CCCc1ccccc1	> 100 µM	> 100 µM	> 100 µM	> 100 µM	> 100 µM	> 100 µM	–	–	51.1	> 100 µM	4.47 µM	30.4 µM	70 µM	24.9 µM	9.82 µM	22.7 µM	7.66 µM	> 100 µM	–	–
Cc1ccc(-n2nnc3c(sc4ccccc43)c2=O)cc1	> 100 µM	> 100 µM	> 100 µM	> 100 µM	7.75 µM	> 100 µM	–	–	> 100	> 100 µM	9.35 µM	> 100 µM	4.04 µM	3.8 µM	17 µM	> 100 µM	2.24 µM	> 100 µM	–	–
CCCCCCCCCCCCNC(=O)[C@H]1CSC(c2cc(Br)cs2)N1 (stereo partly drawn)	1.76 µM	2.04 µM	2.38 µM	2.46 µM	2.42 µM	1.49 µM	–	–	2.47	1.61 µM	1.11 µM	0.774 µM	0.83 µM	0.971 µM	1.15 µM	1.13 µM	0.979 µM	0.759 µM	–	–
Cc1nn2c(=O)n(-c3cccc(-n4nnc5c(-c6ccccc6)c(C)nn5c4=O)c3C)nnc2c1-c1ccccc1	50 µM	> 100 µM	44.3 µM	> 100 µM	> 100 µM	–	91.6	–	–	–	–	–	–	–	–	–	–	–	–	–
O=C1C=CC(=O)c2c1cc1ccccc1c2O	–	12.7 µM	4.8 µM	4.85 µM	9.11 µM	20 µM	3.24	–	25.8	4.25 µM	–	–	–	–	–	–	–	–	–	–
c1cc2ccc3cc2cc1CNCCOCCNCc1ccc2ccc(cc2c1)CNCCOCCNC3	> 100 µM	> 100 µM	> 100 µM	> 100 µM	> 100 µM	> 100 µM	–	–	> 100	> 100 µM	> 100 µM	> 100 µM	> 100 µM	> 100 µM	> 100 µM	> 100 µM	> 100 µM	> 100 µM	–	–
NC(=O)c1ccccc1NC(=O)C(=O)Nc1n[nH]c(N)n1	> 100 µM	> 100 µM	> 100 µM	> 100 µM	> 100 µM	–	> 100	–	–	–	–	–	–	–	–	–	–	–	–	–
O=C1c2ccccc2C(=O)c2c(NCCNCCO)ccc(NCCNCCO)c21	59.7 µM and 11.5 µM	45.2 µM and > 45.9 µM and > 100 µM	7.71 µM and 11.5 µM and 11 µM	> 32.1 µM and 33.3 µM and 11.4 µM	38.1 µM and 27.7 µM and 36.9 µM	3.14 µM and 3.87 µM and 5.01 µM	–	–	> 100	5.85 µM and 6.54 µM and 4.47 µM	42.8 µM and 99.2 µM and > 100 µM	0.151 µM and 0.142 µM and 0.167 µM	1.56 µM and 1.63 µM and 1.52 µM	2.31 µM and 2.42 µM and 4.94 µM	2.41 µM and 2.86 µM and 2.72 µM	2.47 µM and 2.08 µM and 2.38 µM	5.36 µM and 1.58 µM and 2.79 µM	1.46 µM and 1.61 µM and 1.7 µM	–	–
CC(N)CN.CC(N)CN.[Cl-].[O]=[Os+2]=[O] (stereo not drawn)	–	> 100 µM	> 100 µM	–	> 100 µM	> 100 µM	> 100	> 100	–	–	–	–	–	> 100 µM	81.4 µM	–	93.3 µM	> 100 µM	> 100	96.9
COc1cccc(C(C#N)NC23CC4CC(CC(C4)C2)C3)c1 (stereo not drawn)	> 100 µM	> 100 µM	> 100 µM	> 100 µM	> 100 µM	> 100 µM	–	–	> 100	> 100 µM	–	–	–	–	–	–	–	–	–	–
Nc1ncnc2c1nc(N)n2C1OC(CO)C(O)C1O (stereo not drawn)	> 24.4 µM	1.59 µM	4.75 µM	> 100 µM	2.82 µM	1.33 µM	–	–	3.29	4.86 µM	0.697 µM	1.76 µM	0.518 µM	0.318 µM	0.892 µM	0.271 µM	0.295 µM	0.267 µM	–	–
COc1ccc(Oc2nc(Nc3ccc(N4CCOCC4)cc3)ncc2NC(=O)Nc2cc(OC)cc(OC)c2)cc1	> 33.3 µM	13.5 µM	5.46 µM	> 33.3 µM	24.8 µM	9.73 µM	–	–	> 33.3	3.33 µM	> 33.3 µM	10.6 µM	0.992 µM	4.24 µM	1.41 µM	4.66 µM	5.33 µM	2.5 µM	–	–
CCc1ccc(Oc2nccc(-c3c(-c4ccc(F)cc4)ncn3C3CCNCC3)n2)cc1	15.8 µM	14.6 µM	14.5 µM	10.9 µM	9.5 µM	8.44 µM	–	–	12.9	13.6 µM	4.69 µM	7.15 µM	5.16 µM	5.5 µM	10.5 µM	4.64 µM	3.63 µM	4.73 µM	–	–
